# Laboratory results: the supplement of paper PMC9663587
# Tests used:
# Taselisib/GDC0032 = compound: Cc1nc(-c2cn3c(n2)-c2ccc(-c4cnn(C(C)(C)C(N)=O)c4)cc2OCC3)n(C(C)C)n1 [Taselisib/GDC0032]
# BSJ-01-175 = compound: CN(C)C/C=C/C(=O)Nc1ccc(O[C@@H]2CCC[C@@H](Nc3ncc(Cl)c(-c4c[nH]c5ccccc45)n3)C2)cc1 [BSJ-01-175]
# Paclitaxel = compound: CC(=O)O[C@H]1C(=O)[C@@]2(C)[C@H]([C@H](OC(=O)c3ccccc3)[C@]3(O)C[C@H](OC(=O)[C@H](O)[C@@H](NC(=O)c4ccccc4)c4ccccc4)C(C)=C1C3(C)C)[C@]1(OC(C)=O)CO[C@@H]1C[C@@H]2O [Paclitaxel]
# Olaparib/AZD2281 = compound: O=C(c1cc(Cc2n[nH]c(=O)c3ccccc23)ccc1F)N1CCN(C(=O)C2CC2)CC1 [Olaparib/AZD2281]
# ABT-737 = compound: CN(C)CC[C@H](CSc1ccccc1)Nc1ccc(S(=O)(=O)NC(=O)c2ccc(N3CCN(Cc4ccccc4-c4ccc(Cl)cc4)CC3)cc2)cc1[N+](=O)[O-] [ABT-737]
# Ipatasertib/GDC0068 = compound: CC(C)NC[C@@H](C(=O)N1CCN(c2ncnc3c2[C@H](C)C[C@H]3O)CC1)c1ccc(Cl)cc1 [Ipatasertib/GDC0068]
# Flavopiridol [1] = compound: T1, CN1CC[C@H](c2c(O)cc(O)c3c(=O)cc(-c4ccccc4Cl)oc23)[C@H](O)C1 [Flavopiridol]
# Doxorubicin = compound: COc1cccc2c1C(=O)c1c(O)c3c(c(O)c1C2=O)C[C@@](O)(C(=O)CO)C[C@@H]3O[C@H]1C[C@H](N)[C@H](O)[C@H](C)O1 [Doxorubicin]
# Luminespib/NVP-AUY922 = compound: CCNC(=O)c1noc(-c2cc(C(C)C)c(O)cc2O)c1-c1ccc(CN2CCOCC2)cc1 [Luminespib/NVP-AUY922]
# LEE011/Ribociclib = compound: CN(C)C(=O)c1cc2cnc(Nc3ccc(N4CCNCC4)cn3)nc2n1C1CCCC1 [LEE011/Ribociclib]; assay: GR value, 72 h; higher = faster growth (1 = untreated, <0 = killing);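 also: breast cancer and non-malignant breast epithelial lines, nine half-log doses, viable cells counted by Hoechst and LIVE/DEAD dye imaging versus time-zero plates and DMSO controls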
# [2] = compound: CCc1cnn2c(NCc3ccc[n+]([O-])c3)cc(N3CCCC[C@H]3CCO)nc12; assay: as above
# [3] = compound: CC(=O)c1c(C)c2cnc(Nc3ccc(N4CCNCC4)cn3)nc2n(C2CCCC2)c1=O; assay: as above
# THZ531 = compound: CN(C)C/C=C/C(=O)Nc1ccc(C(=O)N2CCC[C@@H](Nc3ncc(Cl)c(-c4c[nH]c5ccccc45)n3)C2)cc1 [THZ531]; assay: as above
# Flavopiridol [4] = compound: T1, Flavopiridol; assay: as above
# YKL-5-124 = compound: C=CC(=O)Nc1ccc(C(=O)Nc2[nH]nc3c2CN(C(=O)N[C@H](CN(C)C)c2ccccc2)C3(C)C)cc1 [YKL-5-124]; assay: as above
# BSJ-03-123 = compound: CC(=O)c1c(C)c2cnc(Nc3ccc(N4CCN(CCOCCOCCOCCNC(=O)COc5cccc6c5C(=O)N(C5CCC(=O)NC5=O)C6=O)CC4)cn3)nc2n(C2CCCC2)c1=O [BSJ-03-123]; assay: as above
# [5] = compound: CCN1CCN(Cc2ccc(Nc3ncc(F)c(-c4cc(F)c5nc(C)n(C(C)C)c5c4)n3)nc2)CC1; assay: as above
# 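For GR50, 72 h in this document: breast cancer and non-malignant breast epithelial cell lines, Deep Dye Drop or Dye Drop imaging, nine half-log doses, GR normalized to time-zero plates and DMSO-only controls.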
cell line,measurement,setting,value
ZR7530,"GR50, 72 h",Taselisib/GDC0032,0.0102 µM
same,"GR50, 72 h",BSJ-01-175,0.0237 µM
same,"GR50, 72 h",Paclitaxel,0.00474 µM
same,"GR50, 72 h",Olaparib/AZD2281,> 10 µM
same,"GR50, 72 h",ABT-737,> 10 µM
same,"GR50, 72 h",Ipatasertib/GDC0068,2.4 µM
same,"GR50, 72 h",Flavopiridol [1],0.192 µM
same,"GR50, 72 h",Doxorubicin,0.0148 µM
same,"GR50, 72 h",Luminespib/NVP-AUY922,0.00303 µM
same,GR value,LEE011/Ribociclib; 0.001 µM,0.854 GR
same,GR value,LEE011/Ribociclib; 0.003162 µM,0.695 GR
same,GR value,LEE011/Ribociclib; 0.01 µM,0.687 GR
same,GR value,LEE011/Ribociclib; 0.03162 µM,0.857 GR
same,GR value,LEE011/Ribociclib; 0.1 µM,0.607 GR
same,GR value,LEE011/Ribociclib; 0.3162 µM,0.463 GR
same,GR value,LEE011/Ribociclib; 1 µM,0.434 GR
same,GR value,LEE011/Ribociclib; 3.162 µM,0.443 GR
same,GR value,LEE011/Ribociclib; 10 µM,0.41 GR
same,GR value,[2]; 0.0001 µM,0.895 GR
same,GR value,[2]; 0.0003162 µM,0.995 GR
same,GR value,[2]; 0.001 µM,1.06 GR
same,GR value,[2]; 0.003162 µM,0.953 GR
same,GR value,[2]; 0.01 µM,0.909 GR
same,GR value,[2]; 0.03162 µM,-0.42 GR
same,GR value,[2]; 0.1 µM,-0.601 GR
same,GR value,[2]; 0.3162 µM,-0.696 GR
same,GR value,[2]; 1 µM,-0.728 GR
same,GR value,[3]; 0.0003162 µM,1.08 GR
same,GR value,[3]; 0.001 µM,1.08 GR
same,GR value,[3]; 0.003162 µM,1.06 GR
same,GR value,[3]; 0.01 µM,0.858 GR
same,GR value,[3]; 0.03162 µM,0.665 GR
same,GR value,[3]; 0.1 µM,0.482 GR
same,GR value,[3]; 0.3162 µM,0.321 GR
same,GR value,[3]; 1 µM,0.451 GR
same,GR value,[3]; 3.162 µM,0.253 GR
same,GR value,THZ531; 0.0001 µM,0.959 GR
same,GR value,THZ531; 0.0003162 µM,1.15 GR
same,GR value,THZ531; 0.001 µM,0.926 GR
same,GR value,THZ531; 0.003162 µM,0.99 GR
same,GR value,THZ531; 0.01 µM,1.02 GR
same,GR value,THZ531; 0.03162 µM,0.98 GR
same,GR value,THZ531; 0.1 µM,-0.379 GR
same,GR value,THZ531; 0.3162 µM,-0.732 GR
same,GR value,THZ531; 1 µM,-0.42 GR
same,GR value,Flavopiridol [4]; 0.0001 µM,1.03 GR
same,GR value,Flavopiridol [4]; 0.0003162 µM,1.14 GR
same,GR value,Flavopiridol [4]; 0.001 µM,1.04 GR
same,GR value,Flavopiridol [4]; 0.003162 µM,0.795 GR
same,GR value,Flavopiridol [4]; 0.01 µM,0.93 GR
same,GR value,Flavopiridol [4]; 0.03162 µM,1.13 GR
same,GR value,Flavopiridol [4]; 0.1 µM,0.766 GR
same,GR value,Flavopiridol [4]; 0.3162 µM,0.119 GR
same,GR value,Flavopiridol [4]; 1 µM,-0.662 GR
same,GR value,YKL-5-124; 0.001 µM,0.344 GR
same,GR value,YKL-5-124; 0.003162 µM,0.254 GR
same,GR value,YKL-5-124; 0.01 µM,0.245 GR
same,GR value,YKL-5-124; 0.03162 µM,0.309 GR
same,GR value,YKL-5-124; 0.1 µM,0.197 GR
same,GR value,YKL-5-124; 0.3162 µM,0.138 GR
same,GR value,YKL-5-124; 1 µM,0.176 GR
same,GR value,YKL-5-124; 3.162 µM,0.177 GR
same,GR value,YKL-5-124; 10 µM,-0.625 GR
same,GR value,BSJ-03-123; 0.001 µM,0.784 GR
same,GR value,BSJ-03-123; 0.003162 µM,0.857 GR
same,GR value,BSJ-03-123; 0.01 µM,0.824 GR
same,GR value,BSJ-03-123; 0.03162 µM,0.72 GR
same,GR value,BSJ-03-123; 0.1 µM,0.835 GR
same,GR value,BSJ-03-123; 0.3162 µM,0.615 GR
same,GR value,BSJ-03-123; 1 µM,0.398 GR
same,GR value,BSJ-03-123; 3.162 µM,0.395 GR
same,GR value,BSJ-03-123; 10 µM,-0.258 GR
same,GR value,[5]; 0.001 µM,1.05 GR
same,GR value,[5]; 0.003162 µM,1.03 GR
same,GR value,[5]; 0.01 µM,0.769 GR
same,GR value,[5]; 0.03162 µM,0.57 GR
same,GR value,[5]; 0.1 µM,0.322 GR
same,GR value,[5]; 0.3162 µM,0.276 GR
same,GR value,[5]; 1 µM,0.282 GR
same,GR value,[5]; 3.162 µM,0.229 GR
same,GR value,[5]; 10 µM,0.127 GR
